Data published in US6699894B1, “Methods for treatment of inflammatory bowel disease” (OSI Pharmaceuticals, Inc., priority 2001, dated 2004).
Where a name gives a salt, the structure may show the parent alone. Read-outs that look alike come from different tables or passages of the source.

Columns and labels:
[1] = molecular target: T1, GST-cGB-PDE5 fusion protein (Homo sapiens, UniProt O76074); test: cGMP binding assay with GST-cGB-PDE5 fusion protein; settings: for competition with cGMP binding at high concentration: test substance 100 μM vs cGMP 2 μM
T1 construct: made in house; host or cells: E. coli BL21 (DE3)
Protocol: 5′-3′, Inc. kits for total RNA followed by oligo (dT) column purification of mRNA are used with HT-29 cells. […] It is then cloned into pGEX-5X-3 glutathione-S-transferase (GST) fusion vector (Pharmacia Biotech) with tac promoter, and EcoRI and XhoI cut sites. The fusion vector is then transfected into E. Coli BL21 (DE3) bacteria (Invitrogen). The transfected BL21 bacteria is grown to log phase, and then IPTG is added as an inducer. The induction is carried at 20° C. for 24 hrs. The bacteria are harvested and lysed. The soluble cell lysate is incubated with GSH conjugated Sepharose 4B (GSH-Sepharose 4B). The GST-cGB-PDE5 fusion protein can bind to the GSH-Sepharose beads, and the other proteins are washed off from beads with excessive cold PBS.
Then, the mixture is transferred to Brandel MB-24 cell harvester with GF/B as the filter membrane followed by 2 washes with 10 mL of cold 5 mM potassium buffer(pH 6.8). The membranes are then cut out and transferred to scintillation vials followed by the addition of 1 mL of H2O and 6 mL of Ready Safe™ liquid scintillation cocktail to each vial. The vials are counted on a Beckman LS 6500 scintillation counter.
The quenching by filter membrane or other debris are also calibrated.

[2] = molecular target: native bovine PDE5 (Bos taurus, UniProt Q28156); settings: read-out: Kd of cGMP binding to native bovine PDE5; cited from earlier work
[3] = tested on: dogs; test: 91-day oral study in dogs; type: in vivo
[4] = tested on: patients; test: Single, escalating dose human clinical safety trial; type: in vivo; settings: oral, 50 mg BID, 100 mg BID, 200 mg BID and 400 mg BID
[5] = tested on: dogs with IBD; test: Efficacy trial in dogs with IBD; type: in vivo
Description: IBD in humans is quite similar to IBD in dogs. […] In fact, the IBD treatments used in dogs are very similar to those used in humans, and the success rates are similarly disappointing. The number of dogs with IBD is estimated to be in the millions in the U.S. Feline IBD is also quite common.
The pre-drug history and results achieved with the drug in each dog are as follows: […]

[6] = tested on: rats; test: 91-day long-term safety assessment study in rats; type: in vivo
Description: These changes were not associated with any gross clinical abnormality.

[7] = tested on: rats; test: Seven-day dose-range finding study in rats; type: in vivo; settings: 7 days
[8] = tested on: rats; test: 28-day study in rats; type: in vivo
Protocol: A 28-day study in rats was also carried out at 0, 50, 500 and 2000 mg/kg/day.

[9] = tested on: PDE4; test: PDE inhibition: PDE4; type: biochemical; settings: similar protocols
[10] = tested on: PDE1; test: PDE inhibition: PDE1; type: biochemical; settings: similar protocols
[11] = molecular target: PDE 5 (Homo sapiens, UniProt O76074); test: Competitive binding (with cGMP) to PDE5
[12] = tested on: dogs; test: Acute and seven-dose toxicity in dogs (capsules); settings: dog, in vivo
Protocol: Therefore, these dogs were subsequently administered seven consecutive doses of 1000 mg/kg/day.

[13] = tested on: rats; test: Acute toxicity study in rats; settings: rat, in vivo
[14] = 91 days, highest dose group (300 mg/kg/day)
[15] = 28 days, 50, 500 and 2000 mg/kg/day

## CC1=C(CC(=O)O)c2cc(F)ccc2/C1=C\c1ccc(S(C)(=O)=O)cc1 [exisulind]
[1]; 3H-cGMP 2 μM, 22° C., 1 hour
  competition with cGMP in binding of GST-cGB-PDE5: None of the PDE5 inhibitors showed any competition with cGMP

## O=c1[nH]cnc2c1ncn2[C@@H]1O[C@@H]2COP(=O)(O)O[C@H]2[C@H]1O [Cyclic IMP]
[1]
  competition with cGMP binding at high concentration: can partially compete

## CCCCOC1C2OP(=O)(O)OCC2OC1n1cnc2c(=O)[nH]c(N)nc21 (stereo not shown) [2′-O-butyl-cGMP]
[1]; 3H-cGMP 2 μM, 22° C., 1 hour
  competition with cGMP in binding of GST-cGB-PDE5: did not compete

## O=C([O-])C1CCN(c2nc(NCc3ccc4c(c3)OCO4)c3cc(Cl)ccc3n2)CC1.[Na+] [Example E4021]
[1]; 3H-cGMP 2 μM, 22° C., 1 hour
  competition with cGMP in binding of GST-cGB-PDE5: None of the PDE5 inhibitors showed any competition with cGMP

## O=c1ccn([C@@H]2O[C@@H]3COP(=O)(O)O[C@H]3[C@H]2O)c(=O)[nH]1 [cUMP]
[1]; 3H-cGMP 2 μM, 22° C., 1 hour
  competition with cGMP in binding of GST-cGB-PDE5: did not compete

## Nc1ncnc2c1ncn2[C@@H]1O[C@@H]2COP(=O)(O)O[C@H]2[C@H]1O [Cyclic AMP]
[1]
  competition with cGMP in binding of GST-cGB-PDE5: did not compete

## Nc1nc2c(ncn2[C@@H]2O[C@@H]3COP(=O)(O)O[C@H]3[C@H]2O)c(=O)[nH]1 [cGMP, cyclic 3′,5′-guanosine monophosphate]
[2]
  Kd: 1300 nM
[1]
  binding to the cGMP binding sites of GST-cGB-PDE5 / PDE5: specifically bound
[1]; read-out: Kd of cGMP binding to GST-cGB-PDE5, two cGMP binding sites
  Kd: 1600 ± 200 nM

## CCCCOC1C2OP(=O)(O)OCC2OC1n1cnc2c(N)ncnc21 (stereo not shown) [2′-O-butyl-cAMP]
[1]; 3H-cGMP 2 μM, 22° C., 1 hour
  competition with cGMP in binding of GST-cGB-PDE5: did not compete

## CSc1ccc(/C=C2/C(C)=C(CC(=O)O)c3cc(F)ccc32)cc1 [Sulindac sulfide, sulindac sulfide]
[1]; 3H-cGMP 2 μM, 22° C., 1 hour
  competition with cGMP in binding of GST-cGB-PDE5: None of the PDE5 inhibitors showed any competition with cGMP

## CCCOc1ccccc1-c1nc2nn[nH]c2c(=O)[nH]1 [zaprinast]
[1]; 3H-cGMP 2 μM, 22° C., 1 hour
  competition with cGMP in binding of GST-cGB-PDE5: None of the PDE5 inhibitors showed any competition with cGMP

## Nc1nc2c(nc(Br)n2[C@@H]2O[C@@H]3COP(=O)(O)O[C@H]3[C@H]2O)c(=O)[nH]1 [Example 8-bromo-cGMP, 8-bromo-cGMP]
[1]
  competition with cGMP binding at high concentration: can partially compete

## Nc1ccn([C@@H]2O[C@@H]3COP(=O)(O)O[C@H]3[C@H]2O)c(=O)n1 [cCMP]
[1]; 3H-cGMP 2 μM, 22° C., 1 hour
  competition with cGMP in binding of GST-cGB-PDE5: did not compete

## CC1=C(CC(=O)NCc2ccccc2)c2cc(F)ccc2/C1=C\c1ccncc1 [Example 38, (Z)-5-Fluoro-2-Methyl-(4-Pyridylidene)-3-(N-Benzyl)Indenylacetamide Hydrochloride]
[3]; 91 days
  tolerability: well tolerated
[3]; 91 days, 150 and 300 mg/kg/day
  feces observation: Orange discoloration of the feces
[3]; 91 days, highest dose group
  microscopic alterations of liver: no microscopic alterations
[3]; [14]
  body weights: Slightly lowered body weights
  liver weights: increased liver weights
[3]; oral, 91 consecutive days, 50, 150 and 300 mg/kg/day
  toxicological effects overall: no toxicological effects
[3]; oral, 91 days
  route of elimination (suggested by feces colour): most of Compound 38 was being eliminated via the feces
[4]
  side effects: no significant side effects at any dose
[5]; Dog #1, 12 weeks of 800 mg BID
  body weight regained, Dog #1: at least 13 lbs.
  histopathological change, Dog #1: significant histopathological improvement
[5]; Dog #1, Month 8 (start), after 12 weeks of treatment, 46 lbs at Month 3 (middle)
  body weight, Dog #1: 60 lbs
[5]; Dog #1, after 12 weeks of treatment, FIGS. 2 and 4
  small intestine histopathology after treatment, Dog #1: closely mimics normal canine small intestinal tissue
[5]; Dog #2, after 7 weeks 400 mg BID
  blood protein levels, Dog #2: returned to normal
[5]; Dog #3, 400 mg BID
  blood protein levels, Dog #3: gradually returned to within normal limits
[5]; Dog #4, after 7 weeks 800 mg BID, owner report
  stool, Dog #4: normal size stool with no mucus
[5]; after 7 weeks 800 mg BID, late stage abdominal neoplastic disease discovered post-mortem
  outcome, Dog #6: Euthanized
[5]; chronic IBD, 7 weeks 800 mg BID without conventional IBD treatments
  clinical status, Dog #5: significantly improved and completely normal
[5]; chronic IBD, conventional therapy withdrawn, 7 weeks 800 mg BID
  clinical status, Dog #4: completely clinically normal with no signs of IBD
[5]; chronic IBD, tylosin stopped, after one week on drug, then withdrawn by owner
  stools, Dog #7: normal stools began to be formed
[5]; moderate IBD (plasmacytic enteritis), two weeks conventional therapy, then 7 weeks 400 mg BID alone
  clinical status, Dog #2: Clinically normal
[5]; protein-losing enteropathy with IBD, 7 weeks 400 mg BID with intermittent metronidazole, no prednisone
  clinical status, Dog #3: clinically normal
[5]; severe IBD, conventional treatment withdrawn, 800 mg BID, first 30 days, owner report
  clinical status in first 30 days, Dog #6: playful, active and clinically normal
[5]; severe lymphoplasmacytic enteritis, 6 weeks conventional therapy plus 800 mg BID, then 6 weeks 800 mg BID alone
  clinical status, Dog #1: became clinically normal
[6]; 91 days
  clinical biochemistry and hematology: no changes in clinical biochemistry and hematology were evident
[6]; 91 days, 500 mg/kg/day
  microscopic finding, follicular cells: follicular cell hypertrophy
[6]; 91 days, 200 and 500 mg/kg/day
  microscopic finding, kidneys: increase in accumulation of hyalin droplets in the kidneys
  microscopic finding, liver: slight hepatocellular hypertrophy
[6]; 91 days, males and females at 200 and 500 mg/kg/day
  liver and thyroid/parathyroid weights: dose-related trend to increased liver and thyroid/parathyroid weights
[6]; oral, 91 consecutive days, 50, 200 and 500 mg/kg/day
  toxicological effects overall: did not produce any major toxicological effects
[7]; 50 mg/kg/day
  signs of toxicity: no observable signs of toxicity
[7]; 500 mg/kg/day
  treatment-related effects: increase in absolute and relative liver weights in female rats
[7]; 2000 mg/kg/day
  treatment-related effects: labored breathing and/or abnormal respiratory sounds, decreased weights gains and food consumption in male rats, and increased liver weights in female rats
[7]; any dose level (50, 500, 2000 mg/kg/day)
  hematology, blood chemistry, microscopic pathology: No hematological or blood chemistry changes nor any microscopic pathology changes
[8]; 28 days
  macroscopic tissue changes at necropsy: No macroscopic tissue changes
[8]; 28 days, 2000 mg/kg/day
  liver weights: statistically significant increase
  thyroid weights: statistically significant increases
[8]; [15]
  body weight changes, ophthalmoscopic examinations, hematological and blood chemistry values and urinalysis: unremarkable
  clinical observations: no abnormal clinical observations
[8]; 28 days, 50 and 500 mg/kg/day
  liver and thyroid weights at the lower doses: not statistically significant
[8]; 28 days, generally limited to a small number of animals at 2000 mg/kg/day, one female at 500 mg/kg/day
  histopathological evaluation of tissues: traces of follicular cell hypertrophy, increased numbers of mitotic figures (suggestive of possible cell proliferation) in the thyroid gland and mild centrilobular hypertrophy in the liver
[9]
  IC50: 6000 nM
[10]
  IC50: 3000 nM
[11]
  competitive (with cGMP) binding to PDE 5: does competitively (with cGMP) bind to PDE 5
[1]
  binding to the cGMP binding sites of GST-cGB-PDE5 / PDE5: does not bind to the cGMP-binding site of PDE5
[12]; 1000 mg/kg
  signs of toxicity: no signs of toxicity
[12]; 1000 mg/kg/day
  signs of drug-related effects: At no time in either dosing phase were any obvious signs of drug-related effects observed
[13]
  acute toxicity on a single-dose basis: not acutely toxic
[13]; ip, 1000 mg/kg
  body weight gain: reduced body weight gain
  necropsy finding: mesenteric adhesions seen in some animals
[13]; po, 2000 mg/kg
  body weight gains: slightly reduced
